Measured values from patent publication US6391916B1, “Enediyne derivatives” (The Hong Kong University of Science and Technology, priority 2000, dated 2002).
Marks after values point to notes of the source that are not given here.

Assays:
[1] = system: φX174 RFI (Form I) double stranded DNA; test: DNA cleavage of supercoiled φX174 RFI (Form I) DNA, agarose gel electrophoresis and densitometry; assay type: biochemical; conditions: FIG. 1; 100 μM, pH range 7.0-8.5, 72 hours
[2] = system: φX174 RFI (Form I) double stranded DNA; test: as above; assay type: biochemical; conditions: for net DNA cut (%) / DNA cleavage potency relative to Compound A: 37° C.; for net DNA cut (%): TEA buffer pH 8.5, 20% DMSO; for DNA cleavage potency relative to Compound A: 72 hours
Procedure: DNA cleavage studies on the compounds of this invention were performed by using supercoiled, covalently closed, circular φX174 RFI (Form I) double stranded DNA. Thus, a 54.3 μM/bp (micromolar per base pair) solution of φX174 RFI DNA and a compound in the indicated concentration in TEA buffer (pH 8.5) containing 20% DMSO was incubated at 37° C. for 48-72 hours and analyzed by 1% agarose gel electrophoresis to separate the various forms of DNA. DNA cleavage was indicated by the formation of nicked relaxed circular DNA (Form II) or linearized DNA (Form III), which was visualized using ethidium bromide stain. A photo picture of the gel was taken over a 365 nanometer ultra-violet light transilluminator and the relative densities of DNA bands were quantitated by a GS-700 imaging densitometer (BIO-RAD). The percentage of net DNA cleavage was calculated by the following equation:
Net DNA Cleavage (%)={[(Form II)s+2×(Form III)s]/[(Form I)s+(Form II)s+2×(Form III)s]×100}−{(Form II)c/[(Form I)c+(Form II)c]×100}
wherein the subscripts “s” and “c” refer to as the samples and controls, respectively.

[3] = system: P388 mice T cell leukemia cells; test: Cytotoxicity by MTT assay in P388 cells; assay type: cell-based, mouse
Procedure: Cytotoxicity was assessed in P388 mice T cell leukemia cells by MTT [3-(4,5-dimethylthiazol-2-yl)-2,5-diphenyl-2H-tetrazolium bromide] assay. Cell suspension (1×10^5 cells/mL) was plated in 96 well microtiter plates at 50 μL/well and it was followed by 50 μL/well of the test compound in serially diluted concentrations. The cells were incubated at 37° C. in a humidified atmosphere containing 5% CO2 in air for 72 hours at which time the tetrazolium dye, MTT, was added. After another 3 hours incubation, 100 μL/well of acidified 2-propanol (0.04 N HCl) was added. The optical densities of the plates were measured with a microplate reader (BIO-RAD) at 570 nm. The greater the absorbance the greater the number of live cells. The results are expressed as an IC50 which is the drug concentration required to inhibit cell proliferation to 50% of that of untreated control cells. The detailed procedure is found in Mosman, J. Immunol. Methods 65:55 (1983); Ferrari et al., Immunol. Methods 131:165 (1990).

[4] = at 37° C.; cited from earlier work
[5] = P388 mouse leukemia cells, 37° C., 72 h, 5% CO2

SMILES | net DNA cut (%) ([2]; At 20 μM) | IC50 [3, 5] [µM] | other results
OC1C#CCCCCC#C/C1=C\c1ccccc1 (stereo not drawn) [Compound 6, (E)-4-(Phenylmethylidene)cyclodeca-1,5-diyn-3-ol] | – | – | DNA cleavage activity (in words) [1]: less potent compared to the corresponding acetate, Compound 29
CC(=O)OC1C#CCCCCC#C/C1=C\c1ccccc1 (stereo not drawn) [Compound 29, (E)-3-Acetoxy-4-(phenylmethylidene)cyclodeca-1,5-diyne] | 19.3[b] % | 48 | DNA cleavage activity (in words) [1]: slightly higher DNA cleavage activity in the basic pHs
COc1ccc(/C=C2\C#CCCCCC#CC2OC(C)=O)cc1 (stereo not drawn) [Compound 30a, (E)-3-Acetoxy-4-[(4′-methoxyphenyl)methylidene]cyclodeca-1,5-diyne] | 86.4[b] % | 15 | –
CC(=O)OC1C#CCCCCC#C/C1=C\c1cccc2ccccc12 (stereo not drawn) [Compound 30b, (E)-3-Acetoxy-4-(1′-naphthylmethylidene)cyclodeca-1,5-diyne] | 77.7[b] % | 2.4 | net DNA cut (%) ([2]; At 5 μM): 33.5[d] %; IC50 ([3]; Mus musculus, P388 cells): 2.4 µM
CC(=O)OC1C#CCCCCC#C/C1=C\c1ccc2ccccc2c1 (stereo not drawn) [Compound 30c, (E)-3-Acetoxy-4-(2′-naphthylmethylidene)cyclodeca-1,5-diyne] | 82.3[b] % | 2.8 | IC50 ([3]; Mus musculus, P388 cells): 2.8 µM
COCC(=O)OC1C#CCCCCC#C/C1=C\c1ccccc1 (stereo not drawn) [Compound 31, (E)-3-Methoxyacetoxy4-(phenylmethylidene)cyclodeca-1,5-diyne] | 13.2[b] % | 23 | DNA cleavage potency relative to Compound A ([2]; FIG. 2, pH 8.5): ca. 100 fold; DNA cleavage activity (in words) ([2]; FIG. 2, concentration range 5-100 μM, pH 8.5): same level of DNA cleavage activity as enediyne, Compound 42
COCC(=O)OC1C#CCCCCC#C/C1=C\c1cccc2ccccc12 (stereo not drawn) [Compound 32b, (E)-3-Methoxyacetoxy-4-(1′-naphthylmethylidene)cyclodeca-1,5-diyne] | 87.4[b] % | 12 | net DNA cut (%) ([2]; At 5 μM): 38.8[d] %
COCC(=O)OC1C#CCCCCC#C/C1=C\c1ccc2ccccc2c1 (stereo not drawn) [Compound 32c, (E)-3-Methoxyacetoxy-4-(2′-naphthylmethylidene)cyclodeca-1,5-diyne] | 71.9[b] % | 28 | –
COc1ccc(C(O)/C2=C/C#CCCCCC#C2)cc1 (stereo not drawn) [Compound 33, 3-[1′-Hydroxy-1′-(4″-methoxyphenyl)methyl]cyclodeca-3-en-1,5-diyne] | – | – | DNA cleavage activity (in words) ([2]; FIG. 4, 20 μM, pH 8.5): reduced DNA cleavage activity
CC(=O)OC1C#CCCCCC#C/C1=C\c1ccccc1CO[Si](C)(C)C(C)(C)C (stereo not drawn) [Compound 34a, (E)-3-Acetoxy-4-[2′-((((tert-butyldimethyl)silyloxy)methyl)phenyl)methylidene]cyclodeca-1,5-diyne] | – | > 50 | net DNA cut (%) ([2]; At 100 μM): 10.7[c] %
COCC(=O)OC1C#CCCCCC#C/C1=C\c1ccccc1CO[Si](C)(C)C(C)(C)C (stereo not drawn) [Compound 34b, (E)-4-[2′-((((tert-butyldimethyl)silyloxy)methyl)phenyl)methylidene]-3-(methoxyacetoxy)cyclodeca-1,5-diyne] | – | > 50 | net DNA cut (%) ([2]; At 100 μM): 14.4[c] %
CC(=O)OC1C#CCCCCC#C/C1=C\c1ccccc1CO (stereo not drawn) [Compound 35a, (E)-3-Acetoxy-4-[2′-((hydroxymethyl)phenyl)methylidene]cyclodeca-1,5-diyne] | – | 21 | net DNA cut (%) ([2]; At 100 μM): 23.5[c] %
COCC(=O)OC1C#CCCCCC#C/C1=C\c1ccccc1CO (stereo not drawn) [Compound 35b] | – | 16 | net DNA cut (%) ([2]; At 100 μM): 17.6[c] %
CCC(=O)OC1C#CCCCCC#C/C1=C\c1cccc2ccccc12 (stereo not drawn) [Compound 36, (E)-4-(1′-Naphthylmethylidene)-3-(propanoyloxy)cyclodeca-1,5-diyne] | – | 10 | –
CCCCCCCC(=O)OC1C#CCCCCC#C/C1=C\c1cccc2ccccc12 (stereo not drawn) [Compound 37, (E)-4-(1′-Naphthylmethylidene)-3-(octanoyloxy)cyclodeca-1,5-diyne] | – | 13 | net DNA cut (%) ([2]; At 5 μM): 4.67[d] %; DNA cleavage activity relative to Compound 32b ([2]; FIG. 5, 5 μM, pH 8.5): ca. one eighth
O=C(COCc1ccccc1)OC1C#CCCCCC#C/C1=C\c1cccc2ccccc12 (stereo not drawn) [Compound 38, (E)-3-(Benzyloxy)acetoxy4-(1′-naphthylmethylidene)cyclodeca-1,5-diyne] | – | 6.7 | net DNA cut (%) ([2]; At 5 μM): 38.6[d] %
COc1ccc(COCC(=O)OC2C#CCCCCC#C/C2=C\c2cccc3ccccc23)cc1 (stereo not drawn) [Compound 39, (E)-3-[(4′-Methoxybenzyl)oxy]acetoxy-4-(1″-naphthylmethylidene)cyclodeca-1,5-diyne] | – | 97 | net DNA cut (%) ([2]; At 5 μM): 26.1[d] %
COc1ccc(OC)c(C(=O)OC2C#CCCCCC#C/C2=C\c2cccc3ccccc23)c1 (stereo not drawn) [Compound 40, (E)4-(1′-Naphthylmethylidene)-3-((2″,5″-dimethoxybenzoyl)oxy)cyclodeca-1,5-diyne] | – | 17 | net DNA cut (%) ([2]; At 5 μM): 35.6[d] %; DNA cleavage activity (in words) ([2]; FIG. 5, 5 μM, pH 8.5): little effect as compared to the acetate in Compound 30b
O=C(OC1C#CCCCCC#C/C1=C\c1cccc2ccccc12)c1cccc2cc3ccccc3cc12 (stereo not drawn) [Compound 41, (E)-3-[(1′-Anthracenecarbonyl)oxy]-4-(1″-naphthylmethylidene)cyclodeca-1,5-diyne] | – | 11 | net DNA cut (%) ([2]; At 5 μM): 10.6[d] %; DNA cleavage activity (in words) ([2]; FIG. 5, 5 μM, pH 8.5): reduced the DNA cleaving potency
COCC(=O)OC(/C1=C/C#CCCCCC#C1)c1ccccc1 (stereo not drawn) [Compound 42, 3-[(1′-Methoxyacetoxy-1′-phenyl)methyl]cyclodeca-3-en-1,5-diyne] | 12.9[b] % | 7.7 | DNA cleavage potency relative to Compound A ([2]; FIG. 2, pH 8.5): ca. 100 fold
COCC(=O)OC(/C1=C/C#CCCCCC#C1)c1cccc2ccccc12 (stereo not drawn) [Compound 43a, 3-[(1′-Methoxyacetoxy-1′-(1″-naphthyl))methyl]cyclodeca-3-en-1,5-diyne] | 67.4[b] % | 3.8 | –
COCC(=O)OC(/C1=C/C#CCCCCC#C1)c1ccc2ccccc2c1 (stereo not drawn) [Compound 43b, 3-[(1′-Methoxyacetoxy-1′-(2″-naphthyl))methyl]cyclodeca-3-en-1,5-diyne] | 77.8[b] % | 9.6 | –
COCC(=O)OC(C1=CC#CCCCCC#C1)c1ccccc1CO[Si](C)(C)C(C)(C)C (stereo not drawn) [Compound 45, 3-[1′-(2″-(((tert-Butyldimethyl)silyloxy)methyl)phenyl)-1′-(methoxyacetoxy)methyl]cyclodeca-3en-1,5-diyne] | – | 12 | net DNA cut (%) ([2]; At 100 μM): 4.13[c] %
COCC(=O)OC(/C1=C/C#CCCCCC#C1)c1ccccc1CO (stereo not drawn) [Compound 48] | – | 8.1 | –
C1#CCCCCC#C/C(C2OCc3ccccc32)=C\1 (stereo not drawn) [Compound 51, 3-[2′,5′-Dihydrobenzofuran-2′-yl]cyclodeca-3-en-1,5-diyne] | – | – | DNA cleavage activity (in words) ([2]; FIG. 6, 100 μM, pH 8.5): less potent than Compound 42
C1#CCCCCC#CC=C1 [cyclodeca-1,5-diyn-3-ene] | – | – | half-life [4]: 18 h
